Results on one compound are retold here after US11844801B2, “Oral compositions of MK2 pathway inhibitor for treatment of immune conditions” (priority 2020, dated 2023).

Test [1] relates to IL-1β. The experiment in a line: LPS stimulated IL-1β production in human whole blood. The class given is cell-based. The protocol:
Compounds were serially diluted in 100% DMSO (Sigma-Aldrich, D2650) followed by a 50× dilution into DMEM/10% FBS (Gibco, 11965/26140). Vehicle consisted of DMSO at a final assay concentration of 0.1%. Pin tools (V&P Scientific, Inc., VP246) were placed in the wells and the plate was placed at 37° C. with 5% CO2, with gently shaking for five minutes, then pin tools were removed and saved. […] Pin tools were placed in the wells in the same orientation as the previous step and gently shook for five minutes at 37° C. with 5% CO2, then removed. […] The plasma was harvested and assayed for TNF-α, IL-1β, and IL-6 using Meso Scale Discovery Technology V-plex human cytokine kits according to the kit protocol. The kit plates were read using an MSD Sector S 6000 instrument. Calculations to establish cytokine calibration curves and to determine analyte concentrations in the samples were carried out using the MSD DISCOVERY WORKBENCH® analysis software.

Test [2] relates to p-HSP27, TNF-α, IL-1β, IL-6 and IL-8. As to the kind of experiment: Ex vivo LPS-stimulated p-HSP27 and cytokines in dosed healthy subjects, summary statements over several analytes. More on the design: species or system human. To be noted: SAD and MAD cohorts. The protocol:
Blood samples of 10 mL were collected for PD analysis. For the SAD cohorts, blood was collected before dosing and 1, 12, and 24 hours after dosing. For the MAD cohorts, on day 1 blood was collected before the morning dose and 4 and 12 hours after the morning dose (prior to the evening dose); on day 7, blood was collected before the morning dose and 4 and 12 hours after the morning dose. […] Additional details of the assays for analyzing p-HSP27 and cytokines are included in the Supplementary Information. Pharmacodynamics. PD data analysis was conducted using Microsoft Excel 2010 (Microsoft, Redmond, WA), Meso Scale Discovery Workbench® analysis software (Rockville, MD), and Phoenix WinNonlin, version 8.2.

Test [3] relates to TNF-α. The experiment in a line: Rat whole blood LPS stimulated TNF-α. The class given is cell-based. The settings on record: 100 ng/mL, 4 hr.
Test [4] concerns IL-17A. The experiment in a line: IL-17A production in CD4+ cells cultured under TH17 skewing conditions. The test is classed as cell-based, human. The procedure: CD4+ cells were cultured for 3 days under TH17 skewing conditions (anti-CD3, anti-CD28, anti-IL-4, anti-IFNγ, rIL-6, rIL-23, rTGFβ). On day 3, cells were harvested, washed, re-plated, and treated with compound or DMSO only. […] After 18-20 hours, supernatants were collected and assayed for IL-17A levels using MSD.

Test [5] has as its system IL-1β. The experiment in a line: R848 stimulated IL-1β production in human whole blood. The class given is cell-based. To be noted: R848, 0.5 ug/mL, 5 hr. The protocol:
Human whole blood assays were performed as described above with the exceptions listed below. […] Compounds were serially diluted in 100% DMSO (Sigma-Aldrich, D2650) followed by a 10× dilution into RPMI (Gibco, 11875). After the one-hour incubation with the compounds or vehicle, 2 μL of R848 (InvivoGen, tlrl-r848) in RPMI (Gibco, 11875) was added for a final concentration of 0.5 μg/mL to each well except for the no stimulus wells. After five hours of incubation with R848, plasma was harvested and assayed for TNF-α, IL-1β, IL-6 and IL-8 using Meso Scale Discovery Technology V-plex human cytokine kits according to the kit protocol.

What is called IC50 is the concentration at which inhibition is half-maximal. `Cc1cnc(-c2ccnc(C(C)(C)O)n2)cc1-n1c(C)cc(OCc2ncc(F)cc2F)c(Cl)c1=O` (single isomer, unassigned) [ATI-450, 3-chloro-4-((3,5-difluoropyridin-2-yl)methoxy)-2′-(2-(2-hydroxypropan-2-yl)pyrimidin-4-yl)-5′,6-dimethyl-2H-[1,4′-bipyridin]-2-one]: the IC50 in test [1] (Human Whole Blood, LPS, 100 ng/mL, 4 or 24 hr, read-out: IC50, IL-1β) was 6.1 nM; in test [1] (human whole blood, LPS 100 ng/mL, read-out: IC50, LPS-stimulated IL-1β), 10 to 100 nM; in test [3], 14.3 ± 1.9 nM; in test [5] it was 95.6 ± 34.8 nM. In test [2], the “modulation of p-HSP27 and inhibition of production of TNF-α, IL-1β, IL-6, and IL-8” value is “concentration-dependent and dose-dependent modulation”. For the same compound, in test [4], the “IL-17 production in CD4+ cells” value is “partially inhibits”.
